{"source": "patent US9290541B2", "about": "“TCL1 peptides for immunotherapy” (Board of Regents, The University of Texas System, priority 2011, dated 2016)", "key": {"[1]": {"system": "TCL171-78 tetramer positive T cells", "experiment": "Peptide titration, avidity of TCL1-specific CTL (IFN-γ ELISA)", "format": "cell-based, human", "settings": "T2 cells pulsed with various peptide concentrations; moderate avidity", "experimental": "FIG. 15. Avidity of TCL1-specific CTL. TCL171-78 tetramer positive T cells were isolated from a TCL1-specific T cell line by MACS using TCL171-78 tetramer PE and anti-PE microbeads. The isolated T cells were incubated with T2 cells pulsed with various concentrations of TCL165-79 peptide and IFN-γ production was determined in the supernatants by ELISA after 18 hours. […] Representative data from one of two experiments."}, "[2]": {"system": "PBMC from HLA-A2+ normal donors", "experiment": "IFN-γ ELISA of T cells stimulated with overlapping 15-mer TCL1 peptides", "format": "cell-based, human", "settings": "three HLA-A2+ normal donors; 10 μg/ml peptide, 5 stimulations; ELISA after 18 hours", "experimental": "FIGS. 3A-E: TCL1-specific cytotoxic T cells can be generated from normal donors. (FIG. 3A) PBMCs from HLA-A2^+ normal donors were stimulated with overlapping 15-mer peptides spanning the entire length of the TCL1 protein (see Table 2). T cells from each condition were washed and incubated with autologous CD3-depleted PBMC as antigen-presenting cells (APC) in the presence or absence of the corresponding peptide. After 18 hours, the production of IFN-γ was determined in the supernatants by ELISA. Asterisk indicates significant IFN-γ production compared with control (P<0.05). Representative data from one of three normal donors tested is shown. (FIG. 3B) T cell lines generated from HLA-A2^+ normal donors using TCL165-79 peptide were incubated with APC in the presence or absence of the TCL165-79 peptide or control HIV Gag77-85 peptide, and intracellular cytokine assay was performed. The percentage of CD4^+ and CD8^+ T cells producing IFN-γ are shown. […] IFN-γ production was determined as in (FIG. 3A). […]\nPeptide-specific T-cell lines were generated from HLA-A2^+ normal donors and patients using methods previously reported (Hida et al., 2002). […] After 18 hours, the production of interferon (IFN)-γ was determined in the supernatants by ELISA. […]"}}, "data": [{"sequence": "TQIGPSLLPIMWQLY [TCL165-79]", "values": [{"measurement": "lowest peptide concentration recognized by T cells", "setting": "[1]", "result": 1, "unit": "nM"}, {"measurement": "induction of peptide-specific IFN-γ-producing T cells", "setting": "[2]", "result": "consistently induced peptide-specific IFN-γ-producing T cells"}]}]}
